Measured values reported in a melting point compilation (Tetko et al.; mined from patent text by program, amines drawn as free bases though some values may be those of a salt).

Row | melting point [°C] | Compound
1 | 120 to 122 | OC1(c2cccs2)C(c2ccccc2Cl)SC2=NCCCCN21 (stereo not drawn)
2 | 123 to 137 | CC(Cc1c[nH]c2ccccc12)(NC(=O)OC1C2CC3CC(C2)CC1C3)C(=O)c1ccccc1CCCC(=O)O (stereo not drawn)
3 | 209 to 210 | CCn1c2c(c3ccc(OC)cc31)CN(C(=O)c1ccc(C)c3ccccc13)CC2
4 | 85 to 86 | CS(=O)(=O)OCc1cc(OCc2ccccc2)cc(OCc2ccccc2)c1
5 | 125 | CC(C)(C)c1cccc(S(=O)(=O)Nc2ccc(C(F)(F)F)nc2I)c1
6 | 145 | COc1cccc2c1c(C)c(CCC(=O)O)n2Cc1ccc(Cl)cc1
7 | 85 | CC(C)(C)OC(=O)C(=CC1C(C(=O)O)C1(C)C)OC(C)(C)C (stereo not drawn)
8 | 74 to 74.5 | COCCOc1ccc([N+](=O)[O-])cc1S(=O)(=O)Cl
9 | 145 to 146 | CCOC(=O)Cn1c(=O)c2cc(Cl)ccc2n(Cc2ccc(Br)cc2F)c1=O
10 | 185 to 186 | COc1ccc(-c2c(C(=O)c3ccccc3)c(CSc3nccn3C)nc3cc(OC)c(OC)cc23)cc1OC
11 | 83 to 84 | COc1cc(Cl)cc(CSCCNC(=O)c2c(Cl)cccc2Cl)c1
12 | 240 to 242 | CCOC(=O)c1nc(-c2ccc([N+](=O)[O-])cc2)[nH]c1-c1ccc(N(C)C)cc1
13 | 153 | CNC(=O)n1c(=O)n(CCCN2CCN(C(c3ccccc3)c3ccccc3)CC2)c2ccccc21
14 | 93 to 94 | CCON=C(CC)C1=C(O)CC(c2c(C)c(C)c3c(c2Cl)CC(C)(CC)C3)CC1=O (stereo not drawn)
15 | 55 to 56 | Cc1oc(C)c(C(=O)OC2CC(C)(C)N(C)C(C)(C)C2)c1C
16 | 160 to 162 | CCOC(=O)c1cc2cc(-c3ccccc3)ccc2nn1
17 | 129 to 132 | O=c1c2c(Cc3cccc(OC(F)(F)F)c3)n[nH]c2c2cccnc2n1-c1cccc(C(F)(F)F)c1
18 | 153 to 156 | O=C1NCCC[C@@H]1NS(=O)(=O)c1ccc(F)cc1
19 | 75 to 77 | CCOC(=O)C(=CNc1ccnn1Cc1ccco1)C(=O)c1ccccc1
20 | 171 to 172 | N#Cc1ccc(Oc2cccc(N)c2)cc1C#N
21 | 96 to 102 | Nc1nc2c(s1)CCN(CC=Cc1ccccc1F)CC2
22 | 104 to 106 | Cc1ccc(C(C)Oc2cnn(C(C)(C)C)c(=O)c2Cl)cc1 (stereo not drawn)
23 | 220 to 221 | N=C(N)c1ccc(C(=O)N[C@@H](Cc2cc(I)c(O)c(I)c2)C(=O)N2CCC(OCC(=O)O)CC2)cc1

Row | melting point [°C] | Compound
24 | 95 to 97 | COC(=O)c1cc(COc2ccccc2)cc(C(=O)OC)c1
25 | 70 to 72 | COC(=O)OCC1OC(n2cc(C)c(=O)[nH]c2=O)CC1OS(C)(=O)=O (stereo not drawn)
26 | 251 to 253 | NS(=O)(=O)c1ccc(-n2nc(C(F)(F)F)cc2-c2nc3cccc(F)c3s2)cc1
27 | 147 to 149 | CC(=Cc1ccc(-n2cnc3c2CCCC3)cc1)[N+](=O)[O-]
28 | 134 to 135 | COc1ccc(CC2Cc3cccc(-c4cccc(C(=O)NCCN5CCCC5)c4)c3O2)cc1OC (stereo not drawn)
29 | 207 to 208 | O=C(O)CCCN1CCN(C2=Nc3ccccc3Cc3ccccc32)CC1
30 | 170 to 172 | OCC1OC(n2c(Cl)nc3cc(Cl)c(F)cc32)C(O)C1O (stereo not drawn)
31 | 92 to 98 | CC(=O)SCCC(=O)N1CCN(C)CC1C(=O)O (stereo not drawn)
32 | 225 to 227 | Cn1c(CNC(=O)Nc2ccc3c(c2)CCC3NC(=O)OC(C)(C)C)c(-c2ccccc2)c2cc(Cl)ccc2c1=O (stereo not drawn)
33 | 176 to 180 | CCOCc1nc2c(N)nc3cc(OCCCCCCNS(C)(=O)=O)ccc3c2n1CC(C)(C)NS(C)(=O)=O
34 | 228 to 229 | COc1cc2c(c3c1OC(C)(C)C3)C(c1ccccc1)=NC(CN1C(=O)c3ccccc3C1=O)C2 (stereo not drawn)
35 | 108 to 110 | COc1ccc(/C(=C\C(=O)N2CCNCC2)c2ccccc2Cl)cc1
36 | 83 to 84 | CC(=O)NCCCCC1Cc2ccccc2C1
37 | 235 to 237 | CN1CCN(c2ccccc2C=C2C(=O)Nc3ccc(Cl)cc32)CC1
38 | 150 to 151 | Cc1ccccc1C(CCC(=O)O)Oc1cc(OCc2ccsc2)cc(F)c1C#N (racemic)
39 | 68 | Nc1ccccc1SCc1noc(CSc2ccccc2N)n1
40 | 187 to 188 | NC(=O)c1c(F)ccc(OCC=CC(=O)O)c1F
41 | 180 to 182 | Cn1cc(-c2cc3cccnc3[nH]2)c2cc(C(=O)NC(C)(CO)CO)ccc21
42 | 193 to 194 | COc1ccc(NC(=S)NC(NC(=O)c2ccc(C)cc2)C(F)(F)F)cc1 (stereo not drawn)
43 | 155 to 156 | Cc1nccn1-c1nc(-c2ccc(Cl)cc2)c(CCC(=O)NCCCl)o1
44 | 86 to 87 | CCC(=O)c1ccc2c(Cc3ccccc3)c(CC)oc2c1
45 | 131 | Cc1cc(C(=O)N2Cc3cccn3Cc3ccccc32)ccc1C1=CCCCC1(C)C
46 | 135 to 137 | COc1ccc2c(c1)Sc1c(cc(OC)c(OC)c1Br)N2C

Row | melting point [°C] | Compound
47 | 184 to 185 | CC(C)(C)c1cc(Cc2nc(S)n[nH]2)cc(C(C)(C)C)c1O
48 | 114 to 115 | COC(C)c1ccc(O)cc1 (single isomer, unassigned; (+))
49 | 206 to 208 | Cc1[nH]cc(C#N)c1-c1ccc(Cl)cc1C(=O)c1ccccc1Cl
50 | 185 to 186 | N#CC1Nc2ccccc2N2CCc3cccc1c32 (stereo not drawn)
51 | > 250 | CCC1(O)CC(=O)OCc2c1cc1n(c2=O)Cc2c-1nc1ccccc1c2CC[Si](C)(C)C (stereo not drawn)
52 | 133 to 135 | O[C@@H](c1c[nH]nc1-c1ccccc1)[C@H](CCN1CCC(O)(c2ccccc2)CC1)c1ccc(Cl)c(Cl)c1 (racemic)
53 | 233 to 235 | CCOC(=O)c1csc(NC(=O)c2cc(C(C)(C)C)c(O)c(C(C)(C)C)c2)n1
54 | 144 to 145 | CC(=O)N(C)C(Cc1ccccc1N)c1ccc(C)s1 (stereo not drawn)
55 | 92 to 94 | CCCCC(=O)c1oc(=O)[nH]c1C
56 | 208 | O=C(NC(=O)c1ccccc1Cl)Nc1ccc(F)c(C(F)(F)F)c1Cl
57 | 267 to 270 | Cc1cc(C(=O)Nc2ccc(C(=O)O)cc2)no1
58 | 66 to 67 | CCc1cc(OCc2ccccc2)cc(C(=O)OC)c1C(=O)OC
59 | 208 to 210 | CC1=C(c2ccccc2)n2nc(C)c(C(N)=O)c2NC1
60 | 108 to 111 | CCOC(=O)c1c(Cl)c2ccc(C)nc2n(C)c1=O
61 | 70 | O=C(O)c1ccccc1OCCNC(=O)C1Cc2ccccc2N1S(=O)(=O)c1ccc(-c2cccc(C(F)(F)F)c2)cc1 (stereo not drawn)
62 | 180 to 183 | COc1cccc(N2CCN(CCC(=O)O)CC2)c1
63 | 147 to 150 | CSC(=C[N+](=O)[O-])NCCSCc1[nH]cnc1C
64 | 180 | COc1ccc(S(=O)(=O)C2(C(=O)O)CCN(C3CCCCCCC3)CC2)cc1
65 | 98 to 100 | c1cncc(-c2nsnc2SCCCc2cccs2)c1
66 | 175 to 177 | Cc1nc(S(=O)(=O)CC(N)=O)nc(C)c1Br
67 | 175 to 180 | COc1ccc2c(C3OC(=O)NC3=O)c(OC)ccc2c1 (stereo not drawn)
68 | 227 | Cc1nccn1-c1cccc(C2=Nc3ccc(-c4ccc(F)cc4)cc3NC(=O)C2)c1
69 | 70.5 to 73.5 | CCOC(=O)c1ccc(SC)c(Cl)c1N(CC)S(C)(=O)=O

Row | melting point [°C] | Compound
70 | 272 to 277 | CNC(=O)c1ccc(C=CC(=O)Nc2cccc(-c3ccc(C)c(CO)c3C)c2)cc1
71 | 260 to 262 | COc1cc(-c2oc3ccccc3c(=O)c2C(=O)O)cc(OC)c1OC
72 | 199 to 200 | CCN1c2ncc(COc3ccc(O)cc3)cc2C(=O)N(C)c2ccc(Cl)nc21
73 | 77 to 78 | O=S(=O)(c1ccc(Oc2ccc(Cl)c(Cl)c2)cc1)C(F)(F)F
74 | 332 to 336 | Cc1c(-c2cc(C#N)ccc2F)sc2nc(N)[nH]c(=O)c12
75 | 115 | O=S(=O)(c1ccc(Cl)c(CBr)c1Cl)N1CCCC1
76 | 233 to 235 | COc1cc(OS(C)(=O)=O)ccc1-c1nc2cc3c(cc2[nH]1)NC(=O)C3(C)C
77 | 177 to 180 | CC(C)(CCn1cncn1)NCC(O)c1ccc(O)c(CO)c1 (stereo not drawn)
78 | 91 to 93 | CC(C)(C)OC(=O)NCCN1CC2CNCC(C1)O2
79 | 130 to 131 | c1ccc(CN2CCC(c3cc(-c4ccccc4)[nH]n3)CC2)cc1
80 | 170 to 172 | CC(C)CC(=O)Nc1cccc(-c2ccnc3c(-c4ccc(CO)cc4)cnn23)c1
81 | 164 to 168 | CC(C)(C)CC(C)(C)Nc1nc(N2CC3CCC(CC3)C2)nc(C(C)(C)C)n1
82 | 133 | CS(=O)(=O)c1ccc(NCC(O)CO)c([N+](=O)[O-])c1 (stereo not drawn)
83 | 88 to 89 | COC(=O)CN(C)c1nc(-c2ccc(Cl)c(Cl)c2)cs1
84 | 175 to 178 | COc1cc(OC)nc(NC(=O)NS(=O)(=O)c2cscc2C)n1
85 | 189 to 192 | CCC(Cc1ccc(OC)c(S(N)(=O)=O)c1)NC(=O)C(F)(F)F (stereo not drawn)
86 | 215 | CC(C(=O)Nc1ccccc1)n1nc(O)c2[nH]c3cc(Cl)ccc3c(=O)c2c1=O (stereo not drawn)
87 | 186 | COc1ccc(CCNc2nc(Cl)nc(NCCc3ccc(OC)c(OC)c3)n2)cc1OC
88 | 192 to 194 | O=C(O)Cc1c(C(=O)O)c2cc(Oc3cccc(Cl)c3)ccc2n1-c1ccccc1
89 | 169 to 171 | COc1ccc(-c2cc(C(=O)O)c(=O)n(CC3CC3)n2)cc1F

Row | Compound | melting point [°C]
90 | CC(=O)OC1(c2ccc(Cl)cc2)CCN(CCCC(=O)c2ccc(F)cc2)CC1 | 106 to 110
91 | Cc1ccc2c(=O)[nH]c(C3CCN(C)CC3)cc2c1 | 236 to 238
92 | O=S1(=O)c2cccc3cccc(c23)N1CCCN1CC=C(c2ccc(Cl)cc2)CC1 | 111
93 | O=[N+]([O-])c1ccccc1Cc1ncc[nH]1 | 155 to 157
94 | CC1Cc2cc3c(cc2C(c2ccc([N+](=O)[O-])cc2)=NN1C(N)=S)OCO3 (stereo not drawn) | 213 to 215
95 | CC12CCC(=O)CC1CCC1C2CCC2(C)C(OC(=O)CCl)CCC12 (stereo not drawn) | 135 to 136
96 | N#Cc1nn(-c2c(Cl)cc(C(F)(F)F)cc2Cl)c(Cl)c1C#CBr | 153
97 | CC1(C)NC(=O)CN1C(=O)CNC(=O)CN1CCCC1=O | 229 to 231
98 | COc1ccc2c(c1)c(C(=O)C(=O)NC1=CC(=O)OC1)cn2Cc1ccc(Cl)cc1 | 238 to 240
